From patent US6608027B1, “Macrocyclic peptides active against the hepatitis C virus” (Boehringer Ingelheim (Canada) Ltd, priority 1999, dated 2003)

These compounds were tested against T1, NS3 protease (Hepatitis C virus genotype 1b, UniProt P26663) (assay: NS3 protease cell-based assay (SEAP reporter, Huh-7 cells)). Settings: SEAP activity, 24-hour incubation, read-out: cell. act. (EC50 code).
T1 construct: expressed in transfected cells; host or cells: Huh-7 human hepatoma cells, transient co-transfection (CMV promoter)
T1 sequence (P26663 1658-1711): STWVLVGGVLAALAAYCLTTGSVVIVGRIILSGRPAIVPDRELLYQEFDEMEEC
T1 sequence (P26663 1027-1657): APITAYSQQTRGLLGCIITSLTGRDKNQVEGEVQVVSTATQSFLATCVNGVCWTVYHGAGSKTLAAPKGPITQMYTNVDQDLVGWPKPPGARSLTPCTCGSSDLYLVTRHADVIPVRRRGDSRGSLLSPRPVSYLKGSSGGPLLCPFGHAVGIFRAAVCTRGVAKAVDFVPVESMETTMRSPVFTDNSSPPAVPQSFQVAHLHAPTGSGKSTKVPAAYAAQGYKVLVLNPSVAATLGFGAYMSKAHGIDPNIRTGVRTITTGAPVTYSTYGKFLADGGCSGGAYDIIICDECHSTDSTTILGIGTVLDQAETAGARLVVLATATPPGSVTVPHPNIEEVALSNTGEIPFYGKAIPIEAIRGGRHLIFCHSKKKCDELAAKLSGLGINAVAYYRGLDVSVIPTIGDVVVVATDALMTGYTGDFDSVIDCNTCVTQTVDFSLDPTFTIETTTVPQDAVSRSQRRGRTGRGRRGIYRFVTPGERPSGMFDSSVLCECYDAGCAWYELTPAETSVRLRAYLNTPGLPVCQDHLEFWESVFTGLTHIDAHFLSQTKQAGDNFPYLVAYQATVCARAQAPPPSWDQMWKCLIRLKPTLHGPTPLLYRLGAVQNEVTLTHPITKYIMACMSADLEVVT
Set-up: species or system HCV
Text: This assay is done with Huh-7 cells, a human cell line derived from a hepatoma, co-transfected with 2 DNA constructs: one (called NS3) expressing part of the HCV non-structural polyprotein fused to the tTA protein through an NS5A-NS5B cleavage site in the following order: NS3-NS4A-NS4B-NS5A-(NS5B)tTA where (NS5B) represents the 6 first amino acids of NS5
B. This polyprotein is expressed under the control of the CMV promoter, the other (called SEAP) expressing the reporter protein, secreted alkaline phosphatase (SEAP), under the regulation of a tTA-responsive promoter. The first construct leads to the expression of a polyprotein from which the different mature proteins are released through cleavage by the NS3 protease. It is believed that the mature viral proteins forms a complex at the membrane of the endoplasmic reticulum. tTA is a fusion protein, described by Gossen and Bujard (Proc. Natl. Acad. Sci. USA 89 (1992): 5547-5551), which contains a DNA-binding domain and a transcriptional activator. Release of the tTA protein requires an NS3-dependent cleavage at the NS5A-NS5B cleavage site between NS5A and itself. This last cleavage allows tTA to migrate to the nucleus and transactivate the SEAP gene. Therefore, reduction of NS3 proteolytic activity leads to confinement of tTA to the cytoplasm and concomitant decrease in SEAP activity.
To control for cellular activities other than inhibition of NS3 protease which are due to the compound, a parallel co-transfection is done with a construct expressing tTA alone and the same reporter construct such that SEAP activity is independent of the NS3 protease.
Protocol of the assay: Huh-7 cells, grown in CHO-SFMII (Life Technologies)+10% FCS (fetal calf serum) were co-transfected with the two DNA constructs in the following proportions: 7 μg NS3+500 ng SEAP+[…] FuGENE (Boehringer Mannheim) per 4×10^6 Huh-7 cells. After 5 hours at 37° C., the cells were washed, trypsinized and plated (at 80 000 cells/well) in 96-well plates containing a range of concentrations of the compounds to be tested. After a 24-hour incubation period, the SEAP activity in the medium was measured with the Phospha-Light kit (Tropix).
Analysis of the percent inhibition of SEAP activity with respect to compound concentration was performed with the SAS software to obtain the EC50.
COc1ccc2c(O[C@@H]3C[C@H]4C(=O)N[C@]5(C(=O)O)C[C@H]5/C=C\COCCC[C@H](NC(=O)OC(C)(C)C)C(=O)N4C3)cc(-c3ccccc3)nc2c1 [Compound 701] was tested, and the EC50 was > 1000 nM. COc1ccc2c(O[C@@H]3C[C@H]4C(=O)N[C@]5(C(=O)O)C[C@H]5/C=C\CCCCC[C@H](NC(=O)OC(C)(C)C)C(=O)N4C3)cc(-c3csc(NC(C)=O)n3)nc2c1 [Compound 702] was tested, and the EC50 was ≤ 1000 nM. For CCNc1nc(-c2cc(O[C@@H]3C[C@H]4C(=O)N[C@]5(C(=O)O)CC5CCCCCCC[C@H](NC(=O)OC(C)(C)C)C(=O)N4C3)c3ccc(OC)cc3n2)cs1 (stereo partly shown) [Compound 703], the EC50 was ≤ 1000 nM. In the case of COc1ccc2c(O[C@@H]3C[C@H]4C(=O)N[C@]5(C(=O)O)C[C@H]5/C=C\CCCCC[C@H](NC(=O)OC(C)(C)C)C(=O)N4C3)cc(-c3ccccn3)nc2c1 [Compound 704], the EC50 is reported as ≤ 1000 nM. COc1ccc2c(O[C@@H]3C[C@H]4C(=O)N[C@]5(C(=O)O)C[C@H]5/C=C\CCCCC[C@H](NC(=O)OC(C)(C)C)C(=O)N4C3)cc(-c3nccs3)nc2c1 [Compound 705] was tested, and the EC50 was ≤ 1000 nM. In the case of COc1ccc2c(O[C@@H]3C[C@H]4C(=O)N[C@]5(C(=O)O)C[C@H]5/C=C\CCCCC[C@H](NC(=O)OC(C)(C)C)C(=O)N4C3)cc(-c3csc(C(C)C)n3)nc2c1 [Compound 707], the EC50 is reported as ≤ 1000 nM. For CCNc1nc(-c2cc(O[C@@H]3C[C@H]4C(=O)N[C@]5(C(=O)O)C[C@H]5/C=C\CCCCC[C@H](NC(=O)OC(C)(C)C)C(=O)N4C3)c3ccc(OC)cc3n2)cs1 [Compound 708], the EC50 was ≤ 1000 nM. For CCOc1cc(O[C@@H]2C[C@H]3C(=O)N[C@]4(C(=O)O)C[C@H]4/C=C\CCCCC[C@H](NC(=O)OC(C)(C)C)C(=O)N3C2)c2ccc(OC)cc2n1 [Compound 712], the EC50 was ≤ 1000 nM. In the case of COc1ccc2c(O[C@@H]3C[C@H]4C(=O)N[C@]5(C(=O)O)C[C@H]5/C=C\CCCCC[C@H](NC(=O)OC(C)(C)C)C(=O)N4C3)cc(-n3cccc3)nc2c1 [Compound 715], the EC50 is reported as ≤ 1000 nM. In the case of COc1ccc2c(O[C@@H]3C[C@H]4C(=O)N[C@]5(C(=O)O)CC5/C=C\CCCCC[C@H](NC(=O)OC(C)(C)C)C(=O)N4C3)cc(-c3nnc(C)o3)nc2c1 (stereo partly shown) [Compound 716], the EC50 is reported as > 1000 nM. For COc1ccc2c(O[C@@H]3C[C@H]4C(=O)N[C@]5(C(=O)O)CC5/C=C\CCCCC[C@H](NC(=O)OC(C)(C)C)C(=O)N4C3)cc(-c3nc(C)no3)nc2c1 (stereo partly shown) [Compound 717], the EC50 was ≤ 1000 nM. COc1ccc2c(O[C@@H]3C[C@H]4C(=O)N[C@]5(C(=O)O)CC5/C=C\CCCCC[C@H](NC(=O)OC(C)(C)C)C(=O)N4C3)cc(-n3ccnc3)nc2c1 (stereo partly shown) [Compound 718] was tested, and the EC50 was ≤ 1000 nM. For COc1ccc2c(O[C@@H]3C[C@H]4C(=O)N[C@]5(C(=O)O)C[C@H]5/C=C\CCCCC[C@H](NC(=O)OC(C)(C)C)C(=O)N4C3)cc(-c3cccc(C)n3)nc2c1 [Compound 719], the EC50 was ≤ 1000 nM. COc1ccc2c(O[C@@H]3C[C@H]4C(=O)N[C@]5(C(=O)O)CC5/C=C\CCCCC[C@H](NC(=O)OC(C)(C)C)C(=O)N4C3)cc(-n3cnc(C)c3)nc2c1 (stereo partly shown) [Compound 722] was tested, and the EC50 was ≤ 1000 nM. COc1ccc2c(O[C@@H]3C[C@H]4C(=O)N[C@]5(C(=O)O)CC5/C=C\CCCCC[C@H](NC(=O)OC(C)(C)C)C(=O)N4C3)cc(-c3nc(C(C)C)cs3)nc2c1 (stereo partly shown) [Compound 725] was tested, and the EC50 was ≤ 1000 nM. In the case of COc1ccc2c(O[C@@H]3C[C@H]4C(=O)N[C@]5(C(=O)O)CC5/C=C\CCCCC[C@H](NC(=O)OC(C)(C)C)C(=O)N4C3)cc(-c3nccn3C)nc2c1 (stereo partly shown) [Compound 726], the EC50 is reported as ≤ 1000 nM. In the case of COCc1cc(O[C@@H]2C[C@H]3C(=O)N[C@]4(C(=O)O)C[C@H]4/C=C\CCCCC[C@H](NC(=O)OC(C)(C)C)C(=O)N3C2)c2ccc(OC)cc2n1 [Compound 727], the EC50 is reported as > 1000 nM. For COc1ccc2c(O[C@@H]3C[C@H]4C(=O)N[C@]5(C(=O)O)C[C@H]5/C=C\CCCCC[C@H](NC(=O)OC(C)(C)C)C(=O)N4C3)cc(C)nc2c1 [Compound 728], the EC50 was > 1000 nM. CNc1nc(-c2cc(O[C@@H]3C[C@H]4C(=O)N[C@]5(C(=O)O)C[C@H]5/C=C\CCCCC[C@H](NC(=O)OC(C)(C)C)C(=O)N4C3)c3ccc(OC)cc3n2)cs1 [Compound 729] was tested, and the EC50 was ≤ 1000 nM. In the case of COc1ccc2c(O[C@@H]3C[C@H]4C(=O)N[C@]5(C(=O)O)C[C@H]5/C=C\CCCCC[C@H](NC(=O)OC(C)(C)C)C(=O)N4C3)cc(-c3csc(N)n3)nc2c1 [Compound 731], the EC50 is reported as ≤ 1000 nM. For COc1ccc2c(O[C@@H]3C[C@H]4C(=O)N[C@]5(C(=O)O)C[C@H]5/C=C\CCCCC[C@H](NC(=O)OC(C)(C)C)C(=O)N4C3)cc(C3CCC=CO3)nc2c1 (stereo partly shown) [Compound 732], the EC50 was > 1000 nM. COc1ccc2c(O[C@@H]3C[C@H]4C(=O)N[C@]5(C(=O)O)CC5/C=C\CCCCC[C@H](NC(=O)OC(C)(C)C)C(=O)N4C3)cc(-n3cccn3)nc2c1 (stereo partly shown) [Compound 733] was tested, and the EC50 was ≤ 1000 nM. In the case of COc1ccc2c(O[C@@H]3C[C@H]4C(=O)N[C@]5(C(=O)O)CC5/C=C\CCCCC[C@H](NC(=O)OC(C)(C)C)C(=O)N4C3)cc(-n3cc(C)cn3)nc2c1 (stereo partly shown) [Compound 734], the EC50 is reported as ≤ 1000 nM. COc1ccc2c(O[C@@H]3C[C@H]4C(=O)N[C@]5(C(=O)O)C[C@H]5/C=C\CCCCC[C@H](NC(=O)OC(C)(C)C)C(=O)N4C3)cc(-c3csc(NC=O)n3)nc2c1 [Compound 735] was tested, and the EC50 was ≤ 1000 nM. With COC(=O)Nc1nc(-c2cc(O[C@@H]3C[C@H]4C(=O)N[C@]5(C(=O)O)C[C@H]5/C=C\CCCCC[C@H](NC(=O)OC(C)(C)C)C(=O)N4C3)c3ccc(OC)cc3n2)cs1 [Compound 736] the EC50 was ≤ 1000 nM. For COc1ccc(-c2cc(O[C@@H]3C[C@H]4C(=O)N[C@]5(C(=O)O)C[C@H]5/C=C\CCCCC[C@H](NC(=O)OC(C)(C)C)C(=O)N4C3)c3ccc(OC)cc3n2)nc1 [Compound 737], the EC50 was ≤ 1000 nM. With COc1ccc2c(O[C@@H]3C[C@H]4C(=O)N[C@]5(C(=O)O)CC5/C=C\CCCCC[C@H](NC(=O)OC(C)(C)C)C(=O)N4C3)cc(-n3ccc(C)n3)nc2c1 (stereo partly shown) [Compound 738] the EC50 was ≤ 1000 nM. For COc1ccc2c(O[C@@H]3C[C@H]4C(=O)N[C@]5(C(=O)O)C[C@H]5/C=C\CCCCC[C@H](NC(=O)OC(C)(C)C)C(=O)N4C3)cc(-c3csc(NC(C)C)n3)nc2c1 [Compound 741], the EC50 was ≤ 1000 nM. CCNc1nc(-c2cc(O[C@@H]3C[C@H]4C(=O)N[C@]5(C(=O)O)CC5/C=C\CCCCC[C@H](NC(=O)OC5CCCC5)C(=O)N4C3)c3ccc(OC)cc3n2)cs1 (stereo partly shown) [Compound 810] was tested, and the EC50 was ≤ 1000 nM. CNc1nc(-c2cc(O[C@@H]3C[C@H]4C(=O)N[C@]5(C(=O)O)CC5/C=C\CCCCC[C@H](NC(=O)OC5CCCC5)C(=O)N4C3)c3ccc(OC)cc3n2)cs1 (stereo partly shown) [Compound 811] was tested, and the EC50 was ≤ 1000 nM. COC(=O)Nc1nc(-c2cc(O[C@@H]3C[C@H]4C(=O)N[C@]5(C(=O)O)CC5/C=C\CCCCC[C@H](NC(=O)OC5CCCC5)C(=O)N4C3)c3ccc(OC)cc3n2)cs1 (stereo partly shown) [Compound 818] was tested, and the EC50 was ≤ 1000 nM. With COc1ccc2c(O[C@@H]3C[C@H]4C(=O)N[C@]5(C(=O)O)CC5/C=C\CCCCC[C@H](NC(=O)OC5CCCC5)C(=O)N4C3)cc(-c3csc(NC(=O)OCC(C)C)n3)nc2c1 (stereo partly shown) [Compound 819] the EC50 was ≤ 1000 nM. In the case of COc1ccc2c(O[C@@H]3C[C@H]4C(=O)N[C@]5(C(=O)O)CC5/C=C\CCCCC[C@H](NC(=O)OC5CCCC5)C(=O)N4C3)cc(-c3csc(NC(C)C)n3)nc2c1 (stereo partly shown) [Compound 822], the EC50 is reported as ≤ 1000 nM. COc1ccc2c(O[C@@H]3C[C@H]4C(=O)N[C@]5(C(=O)O)CC5/C=C\CCCCC[C@H](NC(=O)OC5CCCC5)C(=O)N4C3)cc(-c3csc(NC4CC4)n3)nc2c1 (stereo partly shown) [Compound 825] was tested, and the EC50 was ≤ 1000 nM. For COc1ccc2c(O[C@@H]3C[C@H]4C(=O)N[C@]5(C(=O)O)CC5/C=C\CCCCC[C@H](NC(=O)OC5CCCC5)C(=O)N4C3)cc(-c3csc(NC4CCC4)n3)nc2c1 (stereo partly shown) [Compound 826], the EC50 was ≤ 1000 nM. In the case of COc1ccc2c(O[C@@H]3C[C@H]4C(=O)N[C@]5(C(=O)O)CC5/C=C\CCCCC[C@H](NC(=O)OC5CCCC5)C(=O)N4C3)cc(-c3csc(NC4CCCC4)n3)nc2c1 (stereo partly shown) [Compound 827], the EC50 is reported as ≤ 1000 nM. For COc1ccc2c(O[C@@H]3C[C@H]4C(=O)N[C@]5(C(=O)O)CC5/C=C\CCCCC[C@H](NC(=O)OC5CCCC5)C(=O)N4C3)cc(-c3csc(NC4CCCCC4)n3)nc2c1 (stereo partly shown) [Compound 828], the EC50 was ≤ 1000 nM. For COc1ccc2c(O[C@@H]3C[C@H]4C(=O)N[C@]5(C(=O)O)CC5CCCCCCC[C@H](NC(=O)OC5CCCC5)C(=O)N4C3)cc(-c3nc(C(C)C)cs3)nc2c1 (stereo partly shown) [Compound 906], the EC50 was ≤ 1000 nM. COc1ccc2c(O[C@@H]3C[C@H]4C(=O)N[C@]5(C(=O)O)CC5CCCCCCC[C@H](NC(=O)OC5CCCC5)C(=O)N4C3)cc(-n3cccc3)nc2c1 (stereo partly shown) [Compound 907] was tested, and the EC50 was ≤ 1000 nM. With COc1ccc2c(O[C@@H]3C[C@H]4C(=O)N[C@]5(C(=O)O)CC5CCCCCCC[C@H](NC(=O)OC5CCCC5)C(=O)N4C3)cc(-c3csc(N)n3)nc2c1 (stereo partly shown) [Compound 908] the EC50 was ≤ 1000 nM.
